Source: patent publication US6509163B1, “Methods of screening modulators of mammalian P2X7 purinergic receptors” (Glaxo Group Limited, priority 1997, dated 2003)
Like-named read-outs stand apart in the source and are kept apart here.

What was measured:
Assay type in all cases: cell-based
P2X7 receptor [1] = target: T1, P2X7 receptor (Rattus norvegicus, UniProt Q64663); assay: Whole-cell recordings of agonist-evoked currents in HEK293 cells transfected with rat P2X7 cDNA (Example 2); settings: for EC50: read-out: EC50 (half-maximal concentration) for current
T1 construct: yielding a construct that encoded the entire P2X7 protein; expressed in transfected cells
T1 sequence (Q64663 1-595): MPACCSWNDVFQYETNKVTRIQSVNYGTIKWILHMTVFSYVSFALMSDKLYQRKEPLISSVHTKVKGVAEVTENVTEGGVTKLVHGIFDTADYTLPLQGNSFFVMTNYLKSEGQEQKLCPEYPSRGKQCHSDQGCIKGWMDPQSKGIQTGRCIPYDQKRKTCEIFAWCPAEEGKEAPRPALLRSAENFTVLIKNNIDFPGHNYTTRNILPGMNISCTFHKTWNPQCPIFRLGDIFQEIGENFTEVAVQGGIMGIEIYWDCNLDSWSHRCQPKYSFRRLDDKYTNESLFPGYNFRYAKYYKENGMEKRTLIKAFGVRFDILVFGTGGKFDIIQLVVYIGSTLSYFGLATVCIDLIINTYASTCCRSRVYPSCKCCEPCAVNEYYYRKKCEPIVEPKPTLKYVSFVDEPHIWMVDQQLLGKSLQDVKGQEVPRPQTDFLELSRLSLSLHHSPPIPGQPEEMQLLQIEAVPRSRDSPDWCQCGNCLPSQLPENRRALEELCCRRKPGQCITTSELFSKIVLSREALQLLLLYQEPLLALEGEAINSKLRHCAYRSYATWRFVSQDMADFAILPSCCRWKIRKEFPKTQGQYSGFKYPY
Procedure: Whole-cell recordings were obtained at room temperature from HEK293 cells transiently or stably transfected with P2X7 cDNA, from HEK293 cells transiently transfected with P2X7ΔC cDNA, and from J774A.1 cells (American Type Culture Collection, Rockville, Md.). Agonist were applied for periods of 1 to 3 s by a fast-flow U-tube delivery system (Fenwick et al, J. Physiol. (London) 331:577 (1982)). The internal pipette solution was 140 mM cesium-aspartate or potassium-aspartate, 20 mM NaCl, 10 mM EGTA, and 5 mM Hepes: normal external solution was 145 mM NaCl, 2 mM KCl, 2 mM CaCl2, 1 mM MgCl2, 10 mM Hepes, and 12 mM glucose. Low divalent external solution was nominally magnesium-free with 0.3 mM CaCl2. For cells expressing P2X7 receptors and J774 cells, concentration-response curves were constructed in low divalent solution by recording currents in response to 1-s applications of agonist at 8-min intervals with normal external solution present for 6 min before each application. This protocol was necessary to prevent the development of sustained inward currents. Lipofectin was used for transfection (Buell et al, EMBO J. 15:55 (1996)).
Reversal potentals (Erev) were obtained by application of ATP (300 μM) or BzATP (30 μM) while the membrane was held at various potentals or by application of voltage ramps from −120 to 30 or 50 mV. Permeability ratios from (Erev) were calculated by first computing α (=Pna/PK, where P is permeability) for internal (i) and external (o) concentrations [Na]i=20 mM, [Na]o=145 mM, [Ko]=0 mM, and [K]i=140 mM from α={[145/exp(Erev)F/RT −20]}/140 (where F is the Faraday, R is the gas constant, and T is the absolute temperature). Other PK/PNa values, when [X]o=145 mM, [Na]i=20 mM, [K]i=140 mM, and [Na]o=[K]o=[X]i=0 mM, were computed from PK/PNa={[exp (ErevF/RT) (20=140α)}/145. In order of size (FIG. 3C), X was cesium, methylamine, tris(hydroxymethyl)-aminomethane, tetraethylammonium, and N-methyl-D-glucamine. The internal solution also contained 10 mM EGTA and 5 mM Hepes. External solutions also contained 10 mM glucose and normal or low concentrations of divalent cations; pH was maintained at 7.3 with HCl, histidine, or Hepes as required, and the osmolarity of all solutions was 295 to 315.

rP2X7 receptor = target: T2, rP2X7 receptor (Rattus norvegicus, UniProt Q64663); assay: Whole-cell recordings in HEK293 cells transiently transfected with rP2X7 receptors (Example 3)
T2 construct: yielding a construct that encoded the entire P2X7 protein; expressed in transfected cells
T2 sequence (Q64663 1-595): T1 sequence (Q64663 1-595)
Procedure: Cell culture. HEK293 cells were transiently transfected with cDNA (1 μg/ml) and lipofectin dissolved in Optimem (GIBCO) placed into petri dishes containing four coverslips onto which cells were plated at a density of about 8×10^4/coverslip. Cells were washed 5 h later and normal DMEM applied. Electrophysiological studies or dye uptake measurements were carried out 18-49 h later. For each set of transfections, parallel experiments were performed on HEK cells transfected with cDNA encoding both rP2X7 and hP2X7 receptors.
Electrophysiological experiments. Whole-cell recordings were made using the EPC9 patch-clamp amplifier and Pulse acquisition programs (HEKA, Lambrecht, Germany). Patch pipettes (5-7 MΩ) contained (mM) CsCl or NaCl 154, EGTA 10, HEPES 5. The normal extracellular solution contained (mM) NaCg 147, KCl2, CaCl2 2, MgCl2 1, HEPES 10 and glucose 12, and the “low divalent” solution had no magnesium and 0.3 mM CaCl2. Agonists were delivered by U-tube delivery system; antagonists, when applied, were present in both superfusion and U-tube. Experiments were carried out at room temperature.

P2X7 receptor [2] = target: T1, P2X7 receptor; assay: Whole-cell recordings of agonist-evoked currents in HEK293 cells transfected with rat P2X7 cDNA (Example 2); settings: inward currents, brief application (0.5 to 2 s)

Compound: Nc1ncnc2c1ncn2[C@@H]1O[C@H](COP(=O)(O)OP(=O)(O)OP(=O)(O)O)[C@@H](OC(=O)c2ccc(C(=O)c3ccccc3)cc2)[C@H]1O [BzATP, 3′-O-(4-benzoyl)benzoyl ATP]
- Current amplitude (mean±SEM) to BzATP (P2X7 receptor [1]; 30 μM BzATP, normal solution, holding potential −70 mV, transiently transfected HEK cells, n=18): 636±118 pA
- EC50 (P2X7 receptor [1]; normal solution (2 mM CaCl2, 1 mM MgCl2), n=4): 7 ± 2 µM
- EC50 (P2X7 receptor [1]; zero magnesium, n=7): 3.7 ± 0.7 µM
- cation current induced by maximal concentration of BzATP (rP2X7 receptor; 30 μM BzATP, n=12): 1869±286 pA
- current measured at 30 s, of the peak current (rP2X7 receptor; low extracellular divalent concentrations, n=13): 80±3%
- agonist order of potency (P2X7 receptor [2]): BzATP>>ATP>2MeSATP>ATP-γ-S>>ADP
